The text below walks through data of patent US20250388575A1, “HETEROBIFUNCTIONAL COMPOUNDS AND METHODS OF TREATING DISEASE” (Halda Therapeutics OpCo, Inc., priority 2022, published 2025).

SMILES strings stand for the structures. Read-outs that look alike come from different tables or passages of the source.

In assay [1] the test system is T-Rex 293 cell line SC3 cells having increased expression of androgen receptor protein. The assay is described as follows: Cellular growth inhibition, T-Rex 293 SC3 cells with increased androgen receptor expression (doxycycline), CellTiter-Glo. Type of assay: cell-based. As for the experimental part:
(§1) The following types of cells were prepared for this experiment: (i) a T-Rex 293 cell line having increased expression of androgen receptor protein due to exposure to doxycycline and (ii) a T-Rex 293 cell line lacking increased expression of androgen receptor protein. Ability of the test compounds to inhibit proliferation of the foregoing cell types was evaluated according to the procedures set forth below.
(§2) The doxycycline-inducible androgen receptor protein expressing cell line was established using the following protocol: T-Rex 293 cells were purchased from Invitrogen (Cat #R71007) and transfected using Lipofectamine 2000 with the wild-type androgen receptor protein sequence cloned into the pcDNA4/TO vector. Transfected cells were selected using 400 μg/mL Zeocin (Invitrogen Cat #R25001). Following selection, single clones were raised and maintained in Dulbecco's Modified Eagle Medium (DMEM) supplemented with 10% w/w Tetracycline-free fetal bovine serum (FBS) and 250 μg/mL Zeocin. Clones were analyzed for expression of androgen receptor protein in the presence and absence of 10 ng/ml doxycycline (Sigma Cat #D9891), and a single doxycycline-inducible clone (hereinafter “SC3”) was selected for use in downstream assays.
(§3) The SC3 cells were seeded on poly-D-lysine coated, black clear-bottom 384-well plates at 2500/well, in 25 μL Phenol Red Free Dulbecco's Modified Eagle Medium (DMEM) supplemented with 10% w/w charcoal-dextran treated fetal bovine serum (FBS) and 1% w/w pen-strep, with or without 10 ng/mL doxycycline. Pen-Strep is a commercially available mixture of penicillin G and streptomycin, which is used in mammalian cell culture media to prevent bacterial contamination. Phenol Red Free Dulbecco's Modified Eagle Medium (DMEM) supplemented with 10% w/w charcoal-dextran treated fetal bovine serum (FBS) and 1% w/w pen-strep, with or without 10 ng/mL doxycycline is herein referred to as Treatment Medium. Following seeding of cells in the plates, the plates were spun at 300×g for 30 seconds, then equilibrated to room temperature for 30 minutes, and then deposited in a humidified tissue culture incubator maintained at 37° C. with 5% CO2.
(§4) At 24 hours after seeding of the cells, dilutions of test compound were prepared in DMSO and dissolved in Treatment Medium, to achieve a final DMSO concentration of 0.5% w/w, thereby providing the Test Compound Solution. A 25 μL aliquot of the Test Compound Solution was added to cells in the well plates. An equal volume of a solution containing DMSO and Treatment Medium was used as a negative control. Following treatment of cells with Test Compound Solution or said equal volume of a solution containing DMSO and Treatment Medium, the plates were spun at 300×g for 30 seconds, and then left in an incubator for 72 hours.
(§5) At the end of the treatment duration, cell viability was quantified with CellTiter-Glo 2.0 reagent (Promega Cat #G9243). For this purpose, plates were equilibrated to room temperature for 30 minutes, and then 25 μL of CellTiter-Glo 2.0 reagent was added to cells in the plate wells. Plates were then agitated on a shaker for two minutes at 500 rpm and subsequently incubated at room temperature for 10 minutes. Following incubation, the plates were spun at 3000×g for 30 seconds, then sealed with an optical adhesive cover, and luminescence readings were measured with an EnVision Plate Reader.
(§6) Data was normalized using zero luminescence for baseline. A four-parameter non-linear regression curve fit was applied to dose-response data in GraphPad Prism data analysis software to determine the half-maximal growth inhibitory concentration (GI50) for each test compound.
Background: In ATP-based viability assays light output follows the ATP content of the culture.

Assay [2] concerns T-Rex 293 cell line SC3 cells lacking increased expression of androgen receptor protein. The assay is described as follows: Cellular growth inhibition, T-Rex 293 SC3 cells lacking increased androgen receptor expression (no doxycycline), CellTiter-Glo. Type of assay: cell-based. As for the experimental part: as §1, §2, §3, §4, §5, §6
Another assay relates to VCaP cells. The assay is described as follows: Cellular growth inhibition assay for VCaP cells, CellTiter-Glo. Type of assay: cell-based, human. As for the experimental part: VCaP cells were purchased from American Type Cell Culture (ATCC Cat #CRL2876) and then seeded on poly-D-lysine coated, black clear-bottom 384-well plates at 5000/well in 25 μL Dulbecco's Modified Eagle Medium (DMEM) supplemented with 10% w/w Fetal bovine serum (FBS) and 1% w/w Pen-Strep. Pen-Strep is a commercially available mixture of penicillin G and streptomycin, which is used in mammalian cell culture media to prevent bacterial contamination. Dulbecco's Modified Eagle Medium (DMEM) supplemented with 10% w/w fetal bovine serum (FBS) and 1% w/w Pen-Strep is herein referred to as Treatment Medium. Following seeding of cells in the plates, the plates were spun at 300×g for 30 seconds, then equilibrated to room temperature for 30 minutes, and then deposited in a humidified tissue culture incubator maintained at 37° C. with 5% CO2.
as §4, §5, §6

Where [3] appears, read: T-Rex 293 SC3 cells with increased androgen receptor expression (exposed to 10 ng/mL doxycycline), 72 hours, CellTiter-Glo, read-out: GI50.
[4] abbreviates: T-Rex 293 SC3 cells lacking increased androgen receptor expression (not exposed to doxycycline), 72 hours, CellTiter-Glo, read-out: GI50.
Setting [5] is: Homo sapiens, VCaP cells, 72 hours, CellTiter-Glo, read-out: GI50.
Where [6] appears, read: VCaP cells, 72 hours, CellTiter-Glo, read-out: GI50.

As usually defined, the GI50 is the concentration at which growth is held to half of that of the control. For `CCS(=O)(=O)Nc1ccc(Oc2cccc(OCCOCCOCCOCCOCCOCCOCCOC3CCN(c4ccc(C(=O)N[C@H]5CC[C@H](Oc6ccc(C#N)c(Cl)c6)CC5)nn4)CC3)c2)c(-c2cn(C)c(=O)c3[nH]ccc23)c1` [I-4, N-[4-(3-chloro-4-cyano-phenoxy)cyclohexyl]-6-[4-[2-[2-[2-[2-[2-[2-[2-[3-[4-(ethylsulfonylamino)-2-(6-methyl-7-oxo-1H-pyrrolo[2,3-c]pyridin-4-yl)phenoxy]phenoxy]ethoxy]ethoxy]ethoxy]ethoxy]ethoxy]ethoxy]ethoxy]-1-piperidyl]pyridazine-3-carboxamide], the GI50 is less than 0.5 µM in assay [1] (setting [3]) and 1.5 to 3 µM in assay [2] (setting [4]).
As for `CCS(=O)(=O)Nc1ccc(Oc2cccc(OCCOC3CCN(c4ncc(C(=O)N[C@H]5CC[C@H](Oc6ccc(C#N)c(Cl)c6)CC5)cn4)CC3)c2)c(-c2cn(C)c(=O)c3[nH]ccc23)c1` [I-5, N-[4-(3-chloro-4-cyano-phenoxy)cyclohexyl]-2-[4-[2-[3-[4-(ethylsulfonylamino)-2-(6-methyl-7-oxo-1H-pyrrolo[2,3-c]pyridin-4-yl)phenoxy]phenoxy]ethoxy]-1-piperidyl]pyrimidine-5-carboxamide], the GI50 is less than 0.5 µM in assay [1] (setting [3]), less than 0.5 µM with VCaP cells (setting [5]) and 0.5 to 1.5 µM in assay [2] (setting [4]).
Take `CCS(=O)(=O)Nc1ccc(Oc2cccc(CCOC3CCN(c4ccc(C(=O)N[C@H]5CC[C@H](Oc6ccc(C#N)c(Cl)c6)CC5)nn4)CC3)c2F)c(-c2cn(C)c(=O)c3[nH]ccc23)c1` [I-11]: the GI50 (in assay [1] (setting [3]); in the assay on VCaP cells (setting [5]); in assay [2] (setting [4])) was less than 0.5 µM throughout.
Turning to `CCS(=O)(=O)Nc1ccc(Oc2cccc(CCCN3CCN(c4ccc(C(=O)N[C@H]5CC[C@H](Oc6ccc(C#N)c(Cl)c6)CC5)nn4)CC3)c2F)c(-c2cn(C)c(=O)c3[nH]ccc23)c1` [I-13], the GI50 (in assay [1] (setting [3]); in the assay with VCaP cells (setting [5]); in assay [2] (setting [4])) was less than 0.5 µM throughout.
In the case of `CCS(=O)(=O)Nc1ccc(Oc2cccc(OCCN3CCN(c4ccc(C(=O)N[C@H]5CC[C@H](Oc6ccc(C#N)c(Cl)c6)CC5)nn4)CC3)c2F)c(-c2cn(C)c(=O)c3[nH]ccc23)c1` [I-14], the GI50 (in assay [1] (setting [3]); in the assay on VCaP cells (setting [5]); in assay [2] (setting [4])) was less than 0.5 µM each time.
In the case of `CCS(=O)(=O)Nc1ccc(Oc2cccc(OCCOC3CCN(c4ccc(C(=O)N[C@H]5CC[C@H](Oc6ccc(C#N)c(Cl)c6)CC5)nn4)CC3)c2F)c(-c2cn(C)c(=O)c3[nH]ccc23)c1` [I-16], the GI50 (in assay [1] (setting [3]); in the assay on VCaP cells (setting [5]); in assay [2] (setting [4])) was less than 0.5 µM in each case.
As to `Cn1cc(-c2cc(NS(=O)(=O)CC(F)(F)F)ccc2Oc2cccc(OCCOC3CCN(c4ccc(C(=O)N[C@H]5CC[C@H](Oc6ccc(C#N)c(Cl)c6)CC5)nn4)CC3)c2F)c2cc[nH]c2c1=O` [I-17], the GI50 (in assay [1] (setting [3]); in the assay with VCaP cells (setting [5]); in assay [2] (setting [4])) was less than 0.5 µM in each case.
On to `CCS(=O)(=O)Nc1ccc(Oc2cccc(OCCCC3CCN(c4ccc(C(=O)NC5CCC(Oc6ccc(C#N)c(Cl)c6)CC5)nn4)CC3)c2F)c(-c2cn(C)c(=O)c3[nH]ccc23)c1` (stereo not drawn) [I-18], for which the GI50 (in assay [1] (setting [3]); in the assay with VCaP cells (setting [5]); in assay [2] (setting [4])) was less than 0.5 µM each time.
On to `CCS(=O)(=O)Cc1ccc(Oc2cccc(OCCOC3CCN(c4ccc(C(=O)N[C@H]5CC[C@H](Oc6ccc(C#N)c(Cl)c6)CC5)nn4)CC3)c2F)c(-c2cn(C)c(=O)c3[nH]ccc23)c1` [I-22], for which the GI50 (in assay [1] (setting [3]); in the assay with VCaP cells (setting [5]); in assay [2] (setting [4])) was less than 0.5 µM each time.
Turning to `CCS(=O)(=O)c1ccc(Oc2cccc(OCCOC3CCN(c4ccc(C(=O)N[C@H]5CC[C@H](Oc6ccc(C#N)c(Cl)c6)CC5)nn4)CC3)c2F)c(-c2cn(C)c(=O)c3[nH]ccc23)c1` [I-23], the GI50 (in assay [1] (setting [3]); with VCaP cells (setting [5]); in assay [2] (setting [4])) was less than 0.5 µM each time.
Take `Cn1cc(-c2cc(NS(=O)(=O)C(F)(F)F)ccc2Oc2cccc(OCCOC3CCN(c4ccc(C(=O)N[C@H]5CC[C@H](Oc6ccc(C#N)c(Cl)c6)CC5)nn4)CC3)c2F)c2cc[nH]c2c1=O` [I-24]: the results for the GI50 (in assay [1] (setting [3]); with VCaP cells (setting [5]); in assay [2] (setting [4])) were 0.5 to 1.5 µM, 1.5 to 3 µM and more than 3 µM, respectively.
For `CCS(=O)(=O)c1ccc(Oc2cccc(CCCOC3CCN(c4ccc(C(=O)N[C@H]5CC[C@H](Oc6ccc(C#N)c(Cl)c6)CC5)nn4)CC3)c2F)c(-c2cn(C)c(=O)c3[nH]ccc23)c1` [I-27], the GI50 (in assay [1] (setting [3]); in the assay on VCaP cells (setting [5]); in assay [2] (setting [4])) was less than 0.5 µM in each case.
As for `CCS(=O)(=O)Nc1ccc(Oc2cccc(OCCOC3CCN(c4cnc(C(=O)N[C@H]5CC[C@H](Oc6ccc(C#N)c(Cl)c6)CC5)cn4)CC3)c2F)c(-c2cn(C)c(=O)c3[nH]ccc23)c1` [I-31], the GI50 (in assay [1] (setting [3]); in the assay on VCaP cells (setting [5]); in assay [2] (setting [4])) was less than 0.5 µM throughout.
On to `CCS(=O)(=O)c1ccc(Oc2cccc(OCCOC3CCN(c4cnc(C(=O)N[C@H]5CC[C@H](Oc6ccc(C#N)c(Cl)c6)CC5)cn4)CC3)c2F)c(-c2cn(C)c(=O)c3[nH]ccc23)c1` [I-32], for which the GI50 (in assay [1] (setting [3]); in the assay on VCaP cells (setting [5]); in assay [2] (setting [4])) was less than 0.5 µM each time.
Regarding `CCS(=O)(=O)Nc1ccc(Oc2ccc(OCCOC3CCN(c4ccc(C(=O)N[C@H]5CC[C@H](Oc6ccc(C#N)c(Cl)c6)CC5)nn4)CC3)cc2)c(-c2cn(C)c(=O)c3[nH]ccc23)c1` [I-34], the GI50 (in assay [1] (setting [3]); with VCaP cells (setting [6]); in assay [2] (setting [4])) was less than 0.5 µM in each case.
In the case of `CCS(=O)(=O)Nc1ccc(Oc2cccc(CCCOC3CCN(c4ccc(C(=O)N[C@H]5CC[C@H](Oc6ccc(C#N)c(Cl)c6)CC5)nn4)CC3)c2F)c(-c2cn(C)c(=O)c3[nH]ccc23)c1` [I-37, N-[4-(3-chloro-4-cyano-phenoxy)cyclohexyl]-6-[4-[3-[3-[4-(ethylsulfonylamino)-2-(6-methyl-7-oxo-1H-pyrrolo[2,3-c]pyridin-4-yl)phenoxy]-2-fluoro-phenyl]propoxy]-1-piperidyl]pyridazine-3-carboxamide], the GI50 in assay [1] (72 h) is less than 0.5 µM; with VCaP cells (Homo sapiens, VCaP, 72 h) it was less than 0.5 µM; in assay [2] (72 h), less than 0.5 µM.
As to `CCS(=O)(=O)Nc1ccc(Oc2cccc(CCC3CCN(c4ccc(C(=O)N[C@H]5CC[C@H](Oc6ccc(C#N)c(Cl)c6)CC5)nn4)CC3)c2)c(-c2cn(C)c(=O)c3[nH]ccc23)c1` [I-39], the GI50 in assay [1] (setting [3]) was less than 0.5 µM; with VCaP cells (setting [5]) it was less than 0.5 µM; in assay [2] (setting [4]), more than 3 µM.
Turning to `Cn1cc(-c2cc(C(C)(C)O)ccc2Oc2ccc(CCCCC3CCN(c4ccc(C(=O)N[C@H]5CC[C@H](Oc6ccc(C#N)c(Cl)c6)CC5)nn4)CC3)cc2)c2cc[nH]c2c1=O` [I-125], the GI50 with VCaP cells (setting [6]) was less than 0.5 µM.
